Measurements: ChEMBL document CHEMBL3137667, “[Drug-induced liver injury; fourteenth updated edition of the bibliographic database of liver injuries and related drugs]” (Gastroenterol Clin Biol, 2004)

Columns and labels:
[1] = human
[2] = human; remark: listed apart in the source
[3] = human; remark: listed apart in the source
[4] = human, serum
[5] = Highest frequency of acute liver toxicity observed during clinical trials, expressed as a percentage. [column '% AIGUE' in source]; settings: human
[6] = human, serum; remark: listed apart in the source
[7] = human; remark: listed apart in the source
[8] = human; remark: listed apart in the source
[9] = human; remark: listed apart in the source
[10] = Highest frequency of moderate liver toxicity observed during clinical trials, expressed as a percentage. [column '% BIOL' in source]; settings: human
[11] = human; remark: listed apart in the source
[12] = human, serum, 4383 h
[13] = human; remark: listed apart in the source
[14] = human; remark: listed apart in the source
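For Hepatotoxicity (association with vascular disease) in this document: count of indexed literature references reporting vascular liver injury in humans, e.g. peliosis hepatitis, hepatic veno-occlusive disease or Budd-Chiari syndrome.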
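For Hepatotoxicity (benign tumour) in this document: value is a count of indexed literature references citing a benign tumour confirmed by histopathology.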
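For Hepatotoxicity (choleostasis) in this document: human cholestatic liver injury, shown by histopathology or by peak ALT or AST elevation over alkaline phosphatase ratio below 2, value counts indexed literature reports.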
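For Hepatotoxicity (chronic liver disease) in this document: chronic liver injury confirmed by histopathology or persistently raised serum aminotransferase activity beyond 6 months, value given as the count of indexed literature references.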
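For Hepatotoxicity (cirrhosis) in this document: value is a count of indexed literature references reporting cirrhosis confirmed by histopathology.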
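For Hepatotoxicity (cytolytic) in this document: human cytolytic liver injury, shown by histopathology or by a ratio above 5 of peak ALT or AST elevation to alkaline phosphatase elevation, value counts indexed references.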
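For Hepatotoxicity (granulomatous hepatitis) in this document: value is a count of indexed literature references reporting granulomatous liver disease confirmed by histopathology.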
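For Hepatotoxicity (malignant tumour) in this document: malignant tumour confirmed by histopathology, value gives the count of indexed literature references reporting it.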
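For Hepatotoxicity (severe hepatitis) in this document: human clinical data: severe hepatitis, meaning potentially life-threatening liver failure or clinically observed cases, the value counts how many indexed literature references report it.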
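For Hepatotoxicity (steatosis) in this document: steatosis confirmed by histopathology, value is the count of indexed references.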

Cc1cc(=O)n(-c2ccccc2)n1C [ANTIPYRINE]
Hepatotoxicity (cytolytic) [1]: 0
Hepatotoxicity (benign tumour) [2]: 0
Hepatotoxicity (choleostasis) [3]: 1
Hepatotoxicity (acute) [4]: 1
Hepatotoxicity (acute) [5]: 0%
Hepatotoxicity (moderate) [6]: 0
Hepatotoxicity (malignant tumour) [7]: 0
Hepatotoxicity (steatosis) [8]: 0
Hepatotoxicity (association with vascular disease) [9]: 0
Hepatotoxicity (moderate) [10]: 0%
Hepatotoxicity (severe hepatitis) [11]: 0
Hepatotoxicity (chronic liver disease) [12]: 0
Hepatotoxicity (granulomatous hepatitis) [13]: 0
Hepatotoxicity (cirrhosis) [14]: 0

CN1CCc2cccc3c2[C@H]1Cc1ccc(O)c(O)c1-3 [APOMORPHINE]
Hepatotoxicity (cytolytic) [1]: 0
Hepatotoxicity (benign tumour) [2]: 0
Hepatotoxicity (choleostasis) [3]: 0
Hepatotoxicity (acute) [4]: 0
Hepatotoxicity (acute) [5]: 0%
Hepatotoxicity (moderate) [6]: 1
Hepatotoxicity (malignant tumour) [7]: 0
Hepatotoxicity (steatosis) [8]: 0
Hepatotoxicity (association with vascular disease) [9]: 0
Hepatotoxicity (moderate) [10]: 0%
Hepatotoxicity (severe hepatitis) [11]: 0
Hepatotoxicity (chronic liver disease) [12]: 0
Hepatotoxicity (granulomatous hepatitis) [13]: 0
Hepatotoxicity (cirrhosis) [14]: 0

NCC[C@H](O)C(=O)N[C@@H]1C[C@H](N)[C@@H](O[C@H]2O[C@H](CN)CC[C@H]2N)[C@H](O)[C@H]1O[C@H]1O[C@H](CO)[C@@H](O)[C@H](N)[C@H]1O [ARBEKACIN]
Hepatotoxicity (cytolytic) [1]: 0
Hepatotoxicity (benign tumour) [2]: 0
Hepatotoxicity (choleostasis) [3]: 0
Hepatotoxicity (acute) [4]: 0
Hepatotoxicity (acute) [5]: 0%
Hepatotoxicity (moderate) [6]: 30
Hepatotoxicity (malignant tumour) [7]: 0
Hepatotoxicity (steatosis) [8]: 0
Hepatotoxicity (association with vascular disease) [9]: 0
Hepatotoxicity (moderate) [10]: 27.3%
Hepatotoxicity (severe hepatitis) [11]: 0
Hepatotoxicity (chronic liver disease) [12]: 0
Hepatotoxicity (granulomatous hepatitis) [13]: 0
Hepatotoxicity (cirrhosis) [14]: 0

CNC(=O)C[C@@H](N)C(=O)N[C@@H](C(=O)N[C@@H]1C(=O)N2[C@@H]1SC(C)(C)[C@@H]2C(=O)O)c1ccc(O)cc1 [ASPOXICILLIN]
Hepatotoxicity (cytolytic) [1]: 0
Hepatotoxicity (benign tumour) [2]: 0
Hepatotoxicity (choleostasis) [3]: 0
Hepatotoxicity (acute) [4]: 0
Hepatotoxicity (acute) [5]: 0%
Hepatotoxicity (moderate) [6]: 20
Hepatotoxicity (malignant tumour) [7]: 0
Hepatotoxicity (steatosis) [8]: 0
Hepatotoxicity (association with vascular disease) [9]: 0
Hepatotoxicity (moderate) [10]: 40%
Hepatotoxicity (severe hepatitis) [11]: 0
Hepatotoxicity (chronic liver disease) [12]: 0
Hepatotoxicity (granulomatous hepatitis) [13]: 0
Hepatotoxicity (cirrhosis) [14]: 0

CO[C@H]1[C@@H](O)[C@H](N)[C@@H](O[C@H]2O[C@H]([C@H](C)N)CC[C@H]2N)[C@H](O)[C@@H]1N(C)C(=O)CN [ASTROMICIN]
Hepatotoxicity (cytolytic) [1]: 0
Hepatotoxicity (benign tumour) [2]: 0
Hepatotoxicity (choleostasis) [3]: 0
Hepatotoxicity (acute) [4]: 0
Hepatotoxicity (acute) [5]: 0%
Hepatotoxicity (moderate) [6]: 1
Hepatotoxicity (malignant tumour) [7]: 0
Hepatotoxicity (steatosis) [8]: 0
Hepatotoxicity (association with vascular disease) [9]: 0
Hepatotoxicity (moderate) [10]: 7.3%
Hepatotoxicity (severe hepatitis) [11]: 0
Hepatotoxicity (chronic liver disease) [12]: 0
Hepatotoxicity (granulomatous hepatitis) [13]: 0
Hepatotoxicity (cirrhosis) [14]: 0

CNC(=O)c1cccc2c(Nc3ccc(NS(C)(=O)=O)cc3OC)c3cccc(C)c3nc12 [ASULACRINE]
Hepatotoxicity (cytolytic) [1]: 0
Hepatotoxicity (benign tumour) [2]: 0
Hepatotoxicity (choleostasis) [3]: 0
Hepatotoxicity (acute) [4]: 0
Hepatotoxicity (acute) [5]: 0%
Hepatotoxicity (moderate) [6]: 2
Hepatotoxicity (malignant tumour) [7]: 0
Hepatotoxicity (steatosis) [8]: 0
Hepatotoxicity (association with vascular disease) [9]: 0
Hepatotoxicity (moderate) [10]: 17%
Hepatotoxicity (severe hepatitis) [11]: 0
Hepatotoxicity (chronic liver disease) [12]: 0
Hepatotoxicity (granulomatous hepatitis) [13]: 0
Hepatotoxicity (cirrhosis) [14]: 0

CC1(C)S[C@@H]2[C@H](NC(=O)[C@H](NC(=O)N3CCNC3=O)c3ccccc3)C(=O)N2[C@H]1C(=O)O [AZLOCILLIN]
Hepatotoxicity (cytolytic) [1]: 0
Hepatotoxicity (benign tumour) [2]: 0
Hepatotoxicity (choleostasis) [3]: 0
Hepatotoxicity (acute) [4]: 0
Hepatotoxicity (acute) [5]: 0%
Hepatotoxicity (moderate) [6]: 3
Hepatotoxicity (malignant tumour) [7]: 0
Hepatotoxicity (steatosis) [8]: 0
Hepatotoxicity (association with vascular disease) [9]: 0
Hepatotoxicity (moderate) [10]: 11.1%
Hepatotoxicity (severe hepatitis) [11]: 0
Hepatotoxicity (chronic liver disease) [12]: 0
Hepatotoxicity (granulomatous hepatitis) [13]: 0
Hepatotoxicity (cirrhosis) [14]: 0

CCOC(=O)OC(C)OC(=O)[C@@H]1N2C(=O)[C@@H](NC(=O)[C@H](N)c3ccccc3)[C@H]2SC1(C)C (stereo not given in full) [BACAMPICILLIN]
Hepatotoxicity (cytolytic) [1]: 0
Hepatotoxicity (benign tumour) [2]: 0
Hepatotoxicity (choleostasis) [3]: 0
Hepatotoxicity (acute) [4]: 0
Hepatotoxicity (acute) [5]: 0%
Hepatotoxicity (moderate) [6]: 2
Hepatotoxicity (malignant tumour) [7]: 0
Hepatotoxicity (steatosis) [8]: 0
Hepatotoxicity (association with vascular disease) [9]: 0
Hepatotoxicity (moderate) [10]: 0%
Hepatotoxicity (severe hepatitis) [11]: 0
Hepatotoxicity (chronic liver disease) [12]: 0
Hepatotoxicity (granulomatous hepatitis) [13]: 0
Hepatotoxicity (cirrhosis) [14]: 0

CCOC(=O)OC(C)OC(=O)[C@@H]1N2C(=O)[C@@H](/N=C/N3CCCCCC3)[C@H]2SC1(C)C (stereo not given in full) [BACMECILLINAM]
Hepatotoxicity (cytolytic) [1]: 0
Hepatotoxicity (benign tumour) [2]: 0
Hepatotoxicity (choleostasis) [3]: 0
Hepatotoxicity (acute) [4]: 0
Hepatotoxicity (acute) [5]: 0%
Hepatotoxicity (moderate) [6]: 3
Hepatotoxicity (malignant tumour) [7]: 0
Hepatotoxicity (steatosis) [8]: 0
Hepatotoxicity (association with vascular disease) [9]: 0
Hepatotoxicity (moderate) [10]: 1.8%
Hepatotoxicity (severe hepatitis) [11]: 0
Hepatotoxicity (chronic liver disease) [12]: 0
Hepatotoxicity (granulomatous hepatitis) [13]: 0
Hepatotoxicity (cirrhosis) [14]: 0

CNC1CCCN(c2c(F)cc3c(=O)c(C(=O)O)cn(C4CC4)c3c2OC)C1 (stereo not given) [BALOFLOXACIN]
Hepatotoxicity (cytolytic) [1]: 0
Hepatotoxicity (benign tumour) [2]: 0
Hepatotoxicity (choleostasis) [3]: 0
Hepatotoxicity (acute) [4]: 0
Hepatotoxicity (acute) [5]: 0%
Hepatotoxicity (moderate) [6]: 23
Hepatotoxicity (malignant tumour) [7]: 0
Hepatotoxicity (steatosis) [8]: 0
Hepatotoxicity (association with vascular disease) [9]: 0
Hepatotoxicity (moderate) [10]: 28.6%
Hepatotoxicity (severe hepatitis) [11]: 0
Hepatotoxicity (chronic liver disease) [12]: 0
Hepatotoxicity (granulomatous hepatitis) [13]: 0
Hepatotoxicity (cirrhosis) [14]: 0

COC(=O)C1=C(C)NC(C)=C(C(=O)O[C@H]2CCN(Cc3ccccc3)C2)[C@H]1c1cccc([N+](=O)[O-])c1 [BARNIDIPINE]
Hepatotoxicity (cytolytic) [1]: 0
Hepatotoxicity (benign tumour) [2]: 0
Hepatotoxicity (choleostasis) [3]: 0
Hepatotoxicity (acute) [4]: 0
Hepatotoxicity (acute) [5]: 0%
Hepatotoxicity (moderate) [6]: 1
Hepatotoxicity (malignant tumour) [7]: 0
Hepatotoxicity (steatosis) [8]: 0
Hepatotoxicity (association with vascular disease) [9]: 0
Hepatotoxicity (moderate) [10]: 6.5%
Hepatotoxicity (severe hepatitis) [11]: 0
Hepatotoxicity (chronic liver disease) [12]: 0
Hepatotoxicity (granulomatous hepatitis) [13]: 0
Hepatotoxicity (cirrhosis) [14]: 0

C[C@H]1C[C@H]2[C@@H]3CCC4=CC(=O)C=C[C@]4(C)[C@@]3(Cl)[C@@H](O)C[C@]2(C)[C@@]1(O)C(=O)CO [BECLOMETHASONE]
Hepatotoxicity (cytolytic) [1]: 0
Hepatotoxicity (benign tumour) [2]: 0
Hepatotoxicity (choleostasis) [3]: 0
Hepatotoxicity (acute) [4]: 0
Hepatotoxicity (acute) [5]: 0%
Hepatotoxicity (moderate) [6]: 1
Hepatotoxicity (malignant tumour) [7]: 0
Hepatotoxicity (steatosis) [8]: 0
Hepatotoxicity (association with vascular disease) [9]: 0
Hepatotoxicity (moderate) [10]: 11.6%
Hepatotoxicity (severe hepatitis) [11]: 0
Hepatotoxicity (chronic liver disease) [12]: 0
Hepatotoxicity (granulomatous hepatitis) [13]: 0
Hepatotoxicity (cirrhosis) [14]: 0

NS(=O)(=O)c1cc2c(cc1C(F)(F)F)NC(Cc1ccccc1)NS2(=O)=O (stereo not given) [BENDROFLUMETHIAZIDE]
Hepatotoxicity (cytolytic) [1]: 0
Hepatotoxicity (benign tumour) [2]: 0
Hepatotoxicity (choleostasis) [3]: 0
Hepatotoxicity (acute) [4]: 1
Hepatotoxicity (acute) [5]: 0%
Hepatotoxicity (moderate) [6]: 0
Hepatotoxicity (malignant tumour) [7]: 0
Hepatotoxicity (steatosis) [8]: 0
Hepatotoxicity (association with vascular disease) [9]: 0
Hepatotoxicity (moderate) [10]: 0%
Hepatotoxicity (severe hepatitis) [11]: 0
Hepatotoxicity (chronic liver disease) [12]: 0
Hepatotoxicity (granulomatous hepatitis) [13]: 0
Hepatotoxicity (cirrhosis) [14]: 0

O=C(Cn1ccnc1[N+](=O)[O-])NCc1ccccc1 [BENZNIDAZOLE]
Hepatotoxicity (cytolytic) [1]: 0
Hepatotoxicity (benign tumour) [2]: 0
Hepatotoxicity (choleostasis) [3]: 0
Hepatotoxicity (acute) [4]: 1
Hepatotoxicity (acute) [5]: 0%
Hepatotoxicity (moderate) [6]: 0
Hepatotoxicity (malignant tumour) [7]: 0
Hepatotoxicity (steatosis) [8]: 0
Hepatotoxicity (association with vascular disease) [9]: 0
Hepatotoxicity (moderate) [10]: 0%
Hepatotoxicity (severe hepatitis) [11]: 0
Hepatotoxicity (chronic liver disease) [12]: 0
Hepatotoxicity (granulomatous hepatitis) [13]: 0
Hepatotoxicity (cirrhosis) [14]: 0

CC#CCC(C)[C@H](O)/C=C/[C@@H]1[C@H]2c3cccc(CCCC(=O)O)c3O[C@H]2C[C@H]1O (stereo not given in full) [BERAPROST]
Hepatotoxicity (cytolytic) [1]: 0
Hepatotoxicity (benign tumour) [2]: 0
Hepatotoxicity (choleostasis) [3]: 0
Hepatotoxicity (acute) [4]: 0
Hepatotoxicity (acute) [5]: 0%
Hepatotoxicity (moderate) [6]: 1
Hepatotoxicity (malignant tumour) [7]: 0
Hepatotoxicity (steatosis) [8]: 0
Hepatotoxicity (association with vascular disease) [9]: 0
Hepatotoxicity (moderate) [10]: 13%
Hepatotoxicity (severe hepatitis) [11]: 0
Hepatotoxicity (chronic liver disease) [12]: 0
Hepatotoxicity (granulomatous hepatitis) [13]: 0
Hepatotoxicity (cirrhosis) [14]: 0
